The values below come from PubChem BioAssay AID1963845 (Molecular Pharmacology Branch, DTP, NCI, 2024).

For orientation: viability, T/C means the result in the treated group divided by that in the control group, in per cent.
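Further: luminescence signal used as surrogate measure of viable cells; spheroids exposed to compounds for seven days before readout; 100% = DMSO vehicle control viability as luminescence relative to vehicle.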

The first experiment concerns 429239-143-T-J1-PDC complex spheroid viability. In words: Anticancer human tumor 429239-143-T-J1-PDC patient-derived small cell lung carcinoma cell line growth inhibition [POLQ]. Conditions: second compound 0.0316 µM; first compound 3.16 µM; stronger effect = lower value. The essentials: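 Patient-derived tumour cells were co-cultured with HUVEC and mesenchymal stem cells as multicellular spheroids at 37 °C. They were treated with POLQ inhibitors (novobiocin, ART-558, RP6685) alone or combined with other agents. Top concentrations were at or near clinical Cmax (otherwise 10 microM; SN-38 at 1 microM), decreasing in half-log steps.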
Turning to `CCc1cc2c(N3CCc4c(cc(Cn5ccnc5)cc4-c4cn(C)nc4C(F)(F)F)C3=O)cc(C)nc2c(OC)n1` + Nc1ccc(C#CCN(C(=O)Cc2ncc(C(F)(F)F)cc2C(F)(F)F)c2ccc(F)cc2)nn1, the viability, T/C was 72.1%.
Take `COc1cc2cc(C(=O)CCC(=O)O)sc2cc1OC` + Nc1ccc(C#CCN(C(=O)Cc2ncc(C(F)(F)F)cc2C(F)(F)F)c2ccc(F)cc2)nn1: the viability, T/C is 106%.
For `O=C(Nc1ccc(O)c(NS(=O)(=O)c2ccc(F)cc2)c1)c1ccc(-c2ccccc2)cc1` + Nc1ccc(C#CCN(C(=O)Cc2ncc(C(F)(F)F)cc2C(F)(F)F)c2ccc(F)cc2)nn1, the viability, T/C was 106%.

Staying with this experiment, now noted: second compound 0.0316 µM; first compound 10 µM; stronger effect = lower value.
Consider `C#Cc1c(F)ccc2cc(O)cc(-c3ncc4c(N5CC6CCC(C5)N6)nc(OCC56CCCN5CC(F)C6)nc4c3F)c12` (stereo unspecified) + Nc1ccc(C#CCN(C(=O)Cc2ncc(C(F)(F)F)cc2C(F)(F)F)c2ccc(F)cc2)nn1, for which the viability, T/C was 89.3%.
Consider `CC1COCCN1c1cc(C2(O)CC3CCC(C2)O3)c2cnn(-c3ccn[nH]3)c2n1` (stereo unspecified) + Nc1ccc(C#CCN(C(=O)Cc2ncc(C(F)(F)F)cc2C(F)(F)F)c2ccc(F)cc2)nn1, for which the viability, T/C was 2.1%.
For `CCc1cc2c(N3CCc4c(cc(Cn5ccnc5)cc4-c4cn(C)nc4C(F)(F)F)C3=O)cc(C)nc2c(OC)n1` + Nc1ccc(C#CCN(C(=O)Cc2ncc(C(F)(F)F)cc2C(F)(F)F)c2ccc(F)cc2)nn1, the viability, T/C was 41.3%.
The same measure, in the same setting: under `COc1cc2cc(C(=O)CCC(=O)O)sc2cc1OC` + Nc1ccc(C#CCN(C(=O)Cc2ncc(C(F)(F)F)cc2C(F)(F)F)c2ccc(F)cc2)nn1 stands 119%; under `O=C(Nc1ccc(O)c(NS(=O)(=O)c2ccc(F)cc2)c1)c1ccc(-c2ccccc2)cc1` + Nc1ccc(C#CCN(C(=O)Cc2ncc(C(F)(F)F)cc2C(F)(F)F)c2ccc(F)cc2)nn1, 110%.

The experiment is the same for the next values; noted with them: second compound 0.1 µM; first compound 0.0316 µM; stronger effect = lower value.
As to `C#Cc1c(F)ccc2cc(O)cc(-c3ncc4c(N5CC6CCC(C5)N6)nc(OCC56CCCN5CC(F)C6)nc4c3F)c12` (stereo unspecified) + Nc1ccc(C#CCN(C(=O)Cc2ncc(C(F)(F)F)cc2C(F)(F)F)c2ccc(F)cc2)nn1, the viability, T/C is 103%.
Take `CC1COCCN1c1cc(C2(O)CC3CCC(C2)O3)c2cnn(-c3ccn[nH]3)c2n1` (stereo unspecified) + Nc1ccc(C#CCN(C(=O)Cc2ncc(C(F)(F)F)cc2C(F)(F)F)c2ccc(F)cc2)nn1: the viability, T/C was 83.8%.
Take `CCc1cc2c(N3CCc4c(cc(Cn5ccnc5)cc4-c4cn(C)nc4C(F)(F)F)C3=O)cc(C)nc2c(OC)n1` + Nc1ccc(C#CCN(C(=O)Cc2ncc(C(F)(F)F)cc2C(F)(F)F)c2ccc(F)cc2)nn1: the viability, T/C is 98.7%.
Regarding `COc1cc2cc(C(=O)CCC(=O)O)sc2cc1OC` + Nc1ccc(C#CCN(C(=O)Cc2ncc(C(F)(F)F)cc2C(F)(F)F)c2ccc(F)cc2)nn1, the viability, T/C is 106%.
For `O=C(Nc1ccc(O)c(NS(=O)(=O)c2ccc(F)cc2)c1)c1ccc(-c2ccccc2)cc1` + Nc1ccc(C#CCN(C(=O)Cc2ncc(C(F)(F)F)cc2C(F)(F)F)c2ccc(F)cc2)nn1, the viability, T/C is 105%.

The experiment is the same for the next values; noted with them: second compound 0.1 µM; first compound 0.1 µM; stronger effect = lower value.
For the molecule `C#Cc1c(F)ccc2cc(O)cc(-c3ncc4c(N5CC6CCC(C5)N6)nc(OCC56CCCN5CC(F)C6)nc4c3F)c12` (stereo unspecified) + Nc1ccc(C#CCN(C(=O)Cc2ncc(C(F)(F)F)cc2C(F)(F)F)c2ccc(F)cc2)nn1, the viability, T/C was 107%.
Still for that read-out and setting: under `CC1COCCN1c1cc(C2(O)CC3CCC(C2)O3)c2cnn(-c3ccn[nH]3)c2n1` (stereo unspecified) + Nc1ccc(C#CCN(C(=O)Cc2ncc(C(F)(F)F)cc2C(F)(F)F)c2ccc(F)cc2)nn1 stands 70.5%.
Regarding `CCc1cc2c(N3CCc4c(cc(Cn5ccnc5)cc4-c4cn(C)nc4C(F)(F)F)C3=O)cc(C)nc2c(OC)n1` + Nc1ccc(C#CCN(C(=O)Cc2ncc(C(F)(F)F)cc2C(F)(F)F)c2ccc(F)cc2)nn1, the viability, T/C was 88.1%.
Turning to `COc1cc2cc(C(=O)CCC(=O)O)sc2cc1OC` + Nc1ccc(C#CCN(C(=O)Cc2ncc(C(F)(F)F)cc2C(F)(F)F)c2ccc(F)cc2)nn1, the viability, T/C was 113%.
On the same count and under the same terms, the result for `O=C(Nc1ccc(O)c(NS(=O)(=O)c2ccc(F)cc2)c1)c1ccc(-c2ccccc2)cc1` + Nc1ccc(C#CCN(C(=O)Cc2ncc(C(F)(F)F)cc2C(F)(F)F)c2ccc(F)cc2)nn1 reads 109%.

Staying with this experiment, now noted: second compound 0.1 µM; first compound 0.316 µM; stronger effect = lower value.
For `C#Cc1c(F)ccc2cc(O)cc(-c3ncc4c(N5CC6CCC(C5)N6)nc(OCC56CCCN5CC(F)C6)nc4c3F)c12` (stereo unspecified) + Nc1ccc(C#CCN(C(=O)Cc2ncc(C(F)(F)F)cc2C(F)(F)F)c2ccc(F)cc2)nn1, the viability, T/C was 102%.
On to `CC1COCCN1c1cc(C2(O)CC3CCC(C2)O3)c2cnn(-c3ccn[nH]3)c2n1` (stereo unspecified) + Nc1ccc(C#CCN(C(=O)Cc2ncc(C(F)(F)F)cc2C(F)(F)F)c2ccc(F)cc2)nn1, for which the viability, T/C is 46.3%.
Regarding `CCc1cc2c(N3CCc4c(cc(Cn5ccnc5)cc4-c4cn(C)nc4C(F)(F)F)C3=O)cc(C)nc2c(OC)n1` + Nc1ccc(C#CCN(C(=O)Cc2ncc(C(F)(F)F)cc2C(F)(F)F)c2ccc(F)cc2)nn1, the viability, T/C was 85.8%.
As for `COc1cc2cc(C(=O)CCC(=O)O)sc2cc1OC` + Nc1ccc(C#CCN(C(=O)Cc2ncc(C(F)(F)F)cc2C(F)(F)F)c2ccc(F)cc2)nn1, the viability, T/C was 101%.
Same read-out and setting: the result for `O=C(Nc1ccc(O)c(NS(=O)(=O)c2ccc(F)cc2)c1)c1ccc(-c2ccccc2)cc1` + Nc1ccc(C#CCN(C(=O)Cc2ncc(C(F)(F)F)cc2C(F)(F)F)c2ccc(F)cc2)nn1 reads 112%.

Still in this experiment, the particulars now being: second compound 0.1 µM; first compound 1 µM; stronger effect = lower value.
Regarding `C#Cc1c(F)ccc2cc(O)cc(-c3ncc4c(N5CC6CCC(C5)N6)nc(OCC56CCCN5CC(F)C6)nc4c3F)c12` (stereo unspecified) + Nc1ccc(C#CCN(C(=O)Cc2ncc(C(F)(F)F)cc2C(F)(F)F)c2ccc(F)cc2)nn1, the viability, T/C was 98.7%.
`CC1COCCN1c1cc(C2(O)CC3CCC(C2)O3)c2cnn(-c3ccn[nH]3)c2n1` (stereo unspecified) + Nc1ccc(C#CCN(C(=O)Cc2ncc(C(F)(F)F)cc2C(F)(F)F)c2ccc(F)cc2)nn1: the viability, T/C was 7.55%.
As for `CCc1cc2c(N3CCc4c(cc(Cn5ccnc5)cc4-c4cn(C)nc4C(F)(F)F)C3=O)cc(C)nc2c(OC)n1` + Nc1ccc(C#CCN(C(=O)Cc2ncc(C(F)(F)F)cc2C(F)(F)F)c2ccc(F)cc2)nn1, the viability, T/C was 82.1%.
